Source: US20090306133A1, “New Acetyl Coenzyme A Carboxylase (ACC) Inhibitors And Uses In Treatments Of Obesity And Diabetes Mellitus - 087” (ASTRAZENECA AB, priority 2007, published 2009)

Experiments:
[1] = molecular target: Human recombinant Acetyl-CoA Carboxylase 1 (ACC1) (Homo sapiens, UniProt Q13085); assay: Assay Y: ACC1 inhibition, inorganic phosphate (Malachite Green); assay type: biochemical; conditions: Assay Y: room temperature, 3 hr, 15 min preincubation
Description: (§1) Preincubation of 6 μL enzyme together with 0.3 μL compound for 15 min was done before the reaction was initiated by the addition of 4 μL substrate. […] After 3 hr the reaction was stopped by addition of 60 μL of water followed by 30 μL Malachite Green solution. The Malachite Green solution was prepared by mixing 16.4 mL ammonium molybdate solution (7.5%), 1.64 mL Tween (11%) with 82 mL Malachite Green/H2SO4-solution (0.7 g Malachite Green to 1000 mL of 10% (v/v) H2SO4). Plates were left for 10 min at room temperature before reading the absorbance at 670 nm. All compounds were tested in triplicate at 10 different concentrations. Control compound (0, 50 and 100% effect) was included on each plate. […] An IC50 value was derived by non-linear regression curve fitting using the following equation: […]))) where A is the non-specific binding, B is the total binding, C is the IC50 and D is the slope. Saturation binding Kd and Bmax were derived using the equation y=((B1 max*x)/(Kd+x)).

[2] = molecular target: Human recombinant Acetyl-CoA Carboxylase 2 (ACC2) (Homo sapiens, UniProt O00763); assay: Assay Y: ACC2 inhibition, inorganic phosphate (Malachite Green); assay type: biochemical; conditions: Assay Y: room temperature, 3 hr, 15 min preincubation
Human recombinant Acetyl-CoA Carboxylase 2 (ACC2), sequence (O00763 whole entry): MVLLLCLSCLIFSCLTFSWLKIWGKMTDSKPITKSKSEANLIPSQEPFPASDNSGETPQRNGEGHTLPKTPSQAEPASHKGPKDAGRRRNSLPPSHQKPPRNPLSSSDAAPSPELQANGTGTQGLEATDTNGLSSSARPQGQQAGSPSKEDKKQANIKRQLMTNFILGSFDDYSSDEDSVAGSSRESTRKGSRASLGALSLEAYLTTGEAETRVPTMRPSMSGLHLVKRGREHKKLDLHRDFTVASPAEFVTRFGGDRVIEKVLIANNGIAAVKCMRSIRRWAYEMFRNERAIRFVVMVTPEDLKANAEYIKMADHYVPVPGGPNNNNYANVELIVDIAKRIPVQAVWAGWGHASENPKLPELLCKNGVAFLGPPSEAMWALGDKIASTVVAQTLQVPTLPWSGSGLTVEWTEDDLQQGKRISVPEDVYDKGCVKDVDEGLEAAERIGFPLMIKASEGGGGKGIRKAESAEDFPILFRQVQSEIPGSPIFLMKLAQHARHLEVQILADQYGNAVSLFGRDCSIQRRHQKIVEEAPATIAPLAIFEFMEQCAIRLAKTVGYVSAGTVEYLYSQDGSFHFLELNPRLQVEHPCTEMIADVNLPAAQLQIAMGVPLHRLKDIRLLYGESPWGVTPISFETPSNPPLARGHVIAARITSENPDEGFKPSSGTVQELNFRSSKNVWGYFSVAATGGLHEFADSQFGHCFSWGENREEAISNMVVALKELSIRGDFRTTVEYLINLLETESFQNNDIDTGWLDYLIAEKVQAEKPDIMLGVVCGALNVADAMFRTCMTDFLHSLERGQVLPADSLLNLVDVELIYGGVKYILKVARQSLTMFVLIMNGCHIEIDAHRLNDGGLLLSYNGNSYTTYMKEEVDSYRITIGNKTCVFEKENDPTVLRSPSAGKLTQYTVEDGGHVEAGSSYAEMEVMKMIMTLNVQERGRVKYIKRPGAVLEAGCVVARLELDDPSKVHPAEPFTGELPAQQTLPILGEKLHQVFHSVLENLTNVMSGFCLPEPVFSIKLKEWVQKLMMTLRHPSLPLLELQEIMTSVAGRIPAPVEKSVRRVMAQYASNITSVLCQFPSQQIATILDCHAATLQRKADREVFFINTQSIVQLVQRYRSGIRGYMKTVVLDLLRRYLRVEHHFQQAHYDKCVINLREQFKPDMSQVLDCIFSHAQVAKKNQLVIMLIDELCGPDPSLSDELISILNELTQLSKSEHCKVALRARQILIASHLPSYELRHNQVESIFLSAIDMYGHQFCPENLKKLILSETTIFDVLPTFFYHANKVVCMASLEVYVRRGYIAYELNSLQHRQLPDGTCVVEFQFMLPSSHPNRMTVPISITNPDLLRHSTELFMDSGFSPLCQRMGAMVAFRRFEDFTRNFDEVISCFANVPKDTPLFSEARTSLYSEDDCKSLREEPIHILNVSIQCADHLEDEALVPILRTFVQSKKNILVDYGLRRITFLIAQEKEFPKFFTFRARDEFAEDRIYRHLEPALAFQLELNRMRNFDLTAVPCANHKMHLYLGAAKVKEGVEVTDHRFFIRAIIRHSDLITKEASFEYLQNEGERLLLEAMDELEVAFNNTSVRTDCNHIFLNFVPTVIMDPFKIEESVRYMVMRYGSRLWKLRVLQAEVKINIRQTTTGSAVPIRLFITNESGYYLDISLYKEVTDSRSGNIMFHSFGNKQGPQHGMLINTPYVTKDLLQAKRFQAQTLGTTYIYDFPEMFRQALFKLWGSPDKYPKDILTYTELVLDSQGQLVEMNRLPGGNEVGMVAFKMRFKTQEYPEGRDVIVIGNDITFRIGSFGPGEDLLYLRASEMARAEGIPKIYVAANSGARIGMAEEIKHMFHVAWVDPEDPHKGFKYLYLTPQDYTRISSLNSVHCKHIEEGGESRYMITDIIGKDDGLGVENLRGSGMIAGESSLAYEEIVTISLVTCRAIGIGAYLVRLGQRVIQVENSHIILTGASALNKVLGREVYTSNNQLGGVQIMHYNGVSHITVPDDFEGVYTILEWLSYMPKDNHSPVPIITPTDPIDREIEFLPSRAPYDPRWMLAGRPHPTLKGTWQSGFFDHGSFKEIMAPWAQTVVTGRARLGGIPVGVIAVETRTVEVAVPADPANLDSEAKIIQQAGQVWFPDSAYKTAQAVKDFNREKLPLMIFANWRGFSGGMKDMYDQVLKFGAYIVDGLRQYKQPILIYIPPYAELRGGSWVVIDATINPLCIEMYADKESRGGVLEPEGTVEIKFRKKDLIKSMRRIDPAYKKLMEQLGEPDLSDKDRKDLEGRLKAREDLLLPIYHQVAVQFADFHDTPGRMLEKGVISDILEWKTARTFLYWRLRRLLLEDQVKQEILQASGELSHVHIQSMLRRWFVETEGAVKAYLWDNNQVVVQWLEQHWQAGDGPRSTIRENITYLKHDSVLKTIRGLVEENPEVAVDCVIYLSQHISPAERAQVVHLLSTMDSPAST
Description: as §1

Compound	IC50 [1] [nM]	IC50 [2] [nM]
CC(C)(C)OC(=O)NC[C@H]1CC[C@H](CNC(=O)c2cc(N3CCC(CO)CC3)nc3ccccc23)CC1 [Example 188, tert-Butyl[(trans-4-{[({2-[4-(hydroxymethyl)-piperidin-1-yl]quinolin-4-yl}carbonyl)amino]-methyl}cyclohexyl)-methyl]carbamate]	5640	270
CC(C)OC(=O)NC[C@H]1CC[C@H](CNC(=O)c2cc(-c3ccncc3)nc3ccccc23)CC1 [Example 57, Isopropyl {[trans-4-({[(2-pyridin-4-ylquinolin-4-yl)carbonyl]amino}methyl)cyclo-hexyl]methyl}carbamate]	1910	800
CC(C)(C)OC(=O)NC[C@H]1CC[C@H](CNC(=O)c2cc(-c3cccc(CC(=O)O)c3)nc3ccccc23)CC1 [Example 40, [3-(4-{[(trans-4-{[(tert-Butoxycarbonyl)amino]methyl}cyclohexyl)methyl]-carbamoyl}quinolin-2-yl)phenyl]acetic Acid]	8640	1000
CC(C)(C)OC(=O)NC[C@H]1CC[C@H](CNC(=O)c2cc(-c3cncnc3)nc3ccccc23)CC1 [Example 33, tert-Butyl {[trans-4-({[(2-pyrimidin-5-ylquinolin-4-yl)carbonyl]amino}methyl)cyclo-hexyl]methyl}carbamate]	3510	1140
Cc1nc(-c2ccc(S(=O)(=O)NC[C@H]3CC[C@H](CNC(=O)OC(C)(C)C)CC3)s2)cs1 [Example 70, tert-Butyl ({trans-4-[({[5-(2-methyl-1,3-thiazol-4-yl)-2-thienyl]sulfonyl}amino)-methyl]cyclohexyl}methyl)carbamate]	> 20000	2850
CN(C)CCCOc1cc(C(=O)NC[C@H]2CC[C@H](CNC(=O)OC(C)(C)C)CC2)c2ccccc2n1 [Example 181, tert-Butyl[(trans-4-{[({2-[3-(dimethylamino)-propoxy]quinolin-4-yl}carbonyl)amino]-methyl}cyclohexyl)-methyl]carbamate]	12300	1340
CC(C)(C)OC(=O)NC[C@H]1CC[C@H](CNC(=O)c2cccc3ccccc23)CC1 [Example 96, tert-Butyl ({trans-4-[(1-naphthoylamino)methyl]cyclohexyl}methyl)carbamate]	> 20000	3640
CCOC(=O)NC[C@H]1CC[C@H](CNC(=O)c2cc(-c3ccc(F)cc3)nc3ccccc23)CC1 [Example 17, Ethyl ({trans-4-[({[2-(4-fluorophenyl)quinolin-4-yl]carbonyl}amino)methyl]cyclo-hexyl}methyl)carbamate]	> 20000	1940
CC(C)(C)COC(=O)NC[C@H]1CC[C@H](CNC(=O)c2cc(-c3ccncc3)nc3ccccc23)CC1 [Example 55, 2,2-Dimethylpropyl {[trans-4-({[(2-pyridin-4-ylquinolin-4-yl)carbonyl]amino}methyl)-cyclohexyl]methyl}carbamate]	1300	280
CCOC(=O)NC[C@H]1CC[C@H](CNC(=O)c2cc(-c3ccc(OCC)cc3)nc3ccccc23)CC1 [Example 30, Ethyl ({trans-4-[({[2-(4-ethoxyphenyl)quinolin-4-yl]carbonyl}amino)methyl]-cyclohexyl}methyl)carbamate]	> 20000	1290
CN(C)CCOc1ccc(-c2cc(C(=O)NC[C@H]3CC[C@H](CNC(=O)OC(C)(C)C)CC3)c3ccccc3n2)cn1 [Example 184, tert-Butyl{[trans-4-({[(2-{6-[2-(dimethylamino)ethoxy]pyridin-3-yl}quinolin-4-yl)carbonyl]amino}-methyl)cyclohexyl]-methyl}carbamate]	210	40
CC(=O)N1CCN(c2ccc(-c3cc(C(=O)NC[C@H]4CC[C@H](CNC(=O)OC(C)(C)C)CC4)c4ccccc4n3)cn2)CC1 [Example 142, tert-Butyl [(trans-4-{[({2-[6-(4-acetylpiperazin-1-yl)pyridin-3-yl]quinolin-4-yl}carbonyl)amino]methyl}cyclohexyl)methyl]carbamate]	> 20000	130
CC(C)(C)OC(=O)NC[C@H]1CC[C@H](CN(CC#N)S(=O)(=O)c2ccc3ccccc3c2)CC1 [Example 83, tert-Butyl [(trans-4-{[(cyanomethyl)(2-naphthylsulfonyl)amino]methyl}cyclohexyl)-methyl]carbamate]	> 20000	3270
Cc1nc(C)c(-c2cc(C(=O)NC[C@H]3CC[C@H](CNC(=O)OC(C)(C)C)CC3)c3ccccc3n2)s1 [Example 25, tert-Butyl ({trans-4-[({[2-(2,4-dimethyl-1,3-thiazol-5-yl)quinolin-4-yl]carbonyl}amino)-methyl]cyclohexyl}methyl)carbamate]	1680	140
CN(C[C@H]1CC[C@H](CNC(=O)OC(C)(C)C)CC1)C(=O)c1cc(-c2ccccc2)nc2ccccc12 [Example 91, tert-Butyl {[trans-4-({methyl[(2-phenylquinolin-4-yl)carbonyl]amino}methyl)cyclo-hexyl]methyl}carbamate]	4820	2300
CCOC(=O)NC[C@H]1CC[C@H](CNS(=O)(=O)c2ccc3ccccc3c2)CC1 [Example 54, Ethyl [(trans-4-{[(2-naphthylsulfonyl)amino]methyl}cyclohexyl)methyl]carbamate]	> 20000	3990
CC(C)(C)OC(=O)NC[C@H]1CC[C@H](CNC(=O)c2cc(Cl)nc3ccccc23)CC1 [Example 35, tert-butyl {[trans-4-({[(2-chloroquinolin-4-yl)carbonyl]amino}methyl)cyclohexyl]-methyl}carbamate]	9960	3840
CC(C)(C)OC(=O)NC[C@H]1CC[C@H](CNC(=O)c2cc(-c3ccc(C#N)cc3)nc3ccccc23)CC1 [Example 34, tert-Butyl ({trans-4-[({[2-(4-cyanophenyl)quinolin-4-yl]carbonyl}amino)methyl]cyclo-hexyl}methyl)carbamate]	1170	220

Further lines, results first:

IC50 [1] [nM]	IC50 [2] [nM]	Compound
460	70	C[C@@H](CO)Nc1ccc(-c2cc(C(=O)NC[C@H]3CC[C@H](CNC(=O)OC(C)(C)C)CC3)c3ccccc3n2)cn1 [Example 148, tert-Butyl({trans-4-[({[2-(6-{[(1S)-2-hydroxy-1-methylethyl]amino}-pyridin-3-yl)quinolin-4-yl]carbonyl}amino)-methyl]cyclohexyl}-methyl)carbamate]
560	240	CC(C)(C)OC(=O)NC[C@H]1CC[C@H](CNC(=O)c2cc(-c3ccccc3)nc3ccccc23)CC1 [Example 6, tert-butyl {[trans-4-({[(2-phenylquinolin-4-yl)carbonyl]amino}methyl)cyclohexyl]methyl}carbamate]
2030	320	CC(C)(C)OC(=O)NC[C@H]1CC[C@H](CNC(=O)c2cc(-c3cccnc3)nc3ccccc23)CC1 [Example 16, tert-Butyl {[trans-4-({[(2-pyridin-3-ylquinolin-4-yl)carbonyl]amino}methyl)cyclo-hexyl]methyl}carbamate]
390	50	C[C@H](CO)Nc1ccc(-c2cc(C(=O)NC[C@H]3CC[C@H](CNC(=O)OC(C)(C)C)CC3)c3ccccc3n2)cn1 [Example 149, tert-Butyl({trans-4-[({[2-(6-{[(1R)-2-hydroxy-1-methylethyl]amino}-pyridin-3-yl)quinolin-4-yl]carbonyl}amino)-methyl]cyclohexyl}-methyl)carbamate]
310	80	CC(C)(C)OC(=O)NC[C@H]1CC[C@H](CNC(=O)c2cc(-c3cccc(C(N)=O)c3)nc3ccccc23)CC1 [Example 8, tert-Butyl ({trans-4-[({[2-(3-carbamoylphenyl)quinolin-4-yl]carbonyl}amino)methyl]-cyclohexyl}methyl)carbamate]
1290	620	Cc1ccc(-c2cc(C(=O)NC[C@H]3CC[C@H](CNC(=O)OC(C)(C)C)CC3)c3ccccc3n2)cc1 [Example 20, tert-Butyl ({trans-4-[({[2-(4-methylphenyl)quinolin-4-yl]carbonyl}amino)methyl]-cyclohexyl}methyl)carbamate]
590	110	CC(=O)NCc1cccc(-c2cc(C(=O)NC[C@H]3CC[C@H](CNC(=O)OC(C)(C)C)CC3)c3ccccc3n2)c1 [Example 100, tert-Butyl [(trans-4-{[({2-[3-(acetamidomethyl)phenyl]quinolin-4-yl}carbonyl)amino]-methyl}cyclohexyl)methyl]carbamate]
170	20	CC(C)(C)OC(=O)NC[C@H]1CC[C@H](CNC(=O)c2cc(-c3ccc(CCN)cc3)nc3ccccc23)CC1 [Example 102, tert-Butyl [(trans-4-{[({2-[4-(2-aminoethyl)phenyl]quinolin-4-yl}carbonyl)amino]-methyl}cyclohexyl)methyl]carbamate]
690	180	CC(C)(C)OC(=O)NC[C@H]1CC[C@H](CNC(=O)c2cc(-c3ccc(F)cc3)nc3ccccc23)CC1 [Example 14, tert-Butyl ({trans-4-[({[2-(4-fluorophenyl)quinolin-4-yl]carbonyl}amino)methyl]-cyclohexyl}methyl)carbamate]
